{"source": "patent US6677157B1", "about": "“Method of diagnosis of prostate cancer” (Uropath Pty Ltd., A.C.N., priority 1998, dated 2004)", "system": "mixed lymphocyte reaction", "experiment": "Effect of keratan sulphate on a mixed lymphocyte reaction", "assay_type": "cell-based", "conditions": "20 μg/ml", "experimental": "The function of keratan sulphate in prostate tissue is unknown. It is known, however, that GAG compounds are important in the prevention of autoimmune bonne diseases (forms of arthritis). In order to determine whether keratan sulphate may have an immune regulatory effect it was assessed by intorducing it into a mixed lymphocyte reaction. […] At markedly diluted lymphocyte ratios of >270:1 no effect was evident (see FIG. 2).", "data": [{"substance": "keratan sulphate", "values": [{"measurement": "reduction of mixed lymphocyte reaction", "setting": "lymphocyte ratios of 10, 30 and 90:1", "value": 50, "unit": "%"}, {"measurement": "effect on mixed lymphocyte reaction", "setting": "markedly diluted lymphocyte ratios of >270:1", "value": "no effect"}]}]}
